In brackets after ≈: the same amount, converted by molar mass.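 1) Cells in 96-well plates. 2) Compound, 48 h, 5 concentrations. 3) Linear interpolation between surrounding doses. 4) Unreached endpoint = highest concentration. GI50 = concentration required for 50% inhibition of growth. The concentration for full growth arrest is given as TGI.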 Peptide text beside a SMILES is read from it. * marks the point of attachment. Boc = CC(C)(C)OC(=O)*
What was measured:
Experiment in all cases: DTP human tumour cell line panel, 48 h
RXF 393 renal = tested on: RXF 393 renal
OVCAR-5 ovarian = tested on: OVCAR-5 ovarian
NCI-H460 lung = tested on: NCI-H460 lung
SF-268 CNS = tested on: SF-268 CNS
A549 NSCLC = tested on: A549 NSCLC
HL-60(TB) leukemia = tested on: HL-60(TB) leukemia
786-0 renal = tested on: 786-0 renal
LOX IMVI melanoma = tested on: LOX IMVI melanoma
MDA-MB-231 breast = tested on: MDA-MB-231 breast
UO-31 renal = tested on: UO-31 renal
MOLT-4 leukemia = tested on: MOLT-4 leukemia
SK-MEL-5 melanoma = tested on: SK-MEL-5 melanoma
HT29 colon = tested on: HT29 colon
PC-3 prostate = tested on: PC-3 prostate
SK-OV-3 ovarian = tested on: SK-OV-3 ovarian
ACHN renal = tested on: ACHN renal
SN12C renal = tested on: SN12C renal
NCI/ADR-RES ovarian = tested on: NCI/ADR-RES ovarian
CAKI-1 renal = tested on: CAKI-1 renal
SR leukemia = tested on: SR leukemia
K-562 leukemia = tested on: K-562 leukemia
HCT-15 colon = tested on: HCT-15 colon
OVCAR-8 ovarian = tested on: OVCAR-8 ovarian
KM12 colon = tested on: KM12 colon
SF-295 CNS = tested on: SF-295 CNS
UACC-62 melanoma = tested on: UACC-62 melanoma
U251 CNS = tested on: U251 CNS
HCC-2998 colon = tested on: HCC-2998 colon
HOP-62 NSCLC = tested on: HOP-62 NSCLC
T-47D breast = tested on: T-47D breast
UACC-257 melanoma = tested on: UACC-257 melanoma
OVCAR-3 ovarian = tested on: OVCAR-3 ovarian
MDA-MB-435 = tested on: MDA-MB-435
TK-10 renal = tested on: TK-10 renal
RPMI-8226 leukemia = tested on: RPMI-8226 leukemia
EKVX NSCLC = tested on: EKVX NSCLC
NCI-H226 lung = tested on: NCI-H226 lung
SNB-19 CNS = tested on: SNB-19 CNS
SF-539 CNS = tested on: SF-539 CNS
NCI-H23 lung = tested on: NCI-H23 lung
OVCAR-4 ovarian = tested on: OVCAR-4 ovarian
NCI-H522 lung = tested on: NCI-H522 lung
SNB-75 CNS = tested on: SNB-75 CNS
HOP-92 NSCLC = tested on: HOP-92 NSCLC
COLO 205 colon = tested on: COLO 205 colon
SK-MEL-2 melanoma = tested on: SK-MEL-2 melanoma
M14 melanoma = tested on: M14 melanoma
DU-145 prostate = tested on: DU-145 prostate
HS 578T breast = tested on: HS 578T breast

## S=c1ssc(Sc2ccccn2)c1Cl
RXF 393 renal
  GI50: 16.9 µM
  TGI: 32.6 µM
OVCAR-5 ovarian
  GI50: 25.6 µM
  TGI: 48.3 µM
NCI-H460 lung
  GI50: 15.2 µM
  TGI: 28.5 µM
SF-268 CNS
  GI50: 13.5 µM
  TGI: 26.4 µM
A549 NSCLC
  GI50: 21 µM
  TGI: 42.7 µM
HL-60(TB) leukemia
  GI50: 3.56 µM
  TGI: 9.78 µM
786-0 renal
  GI50: 4.09 µM
  TGI: 14.4 µM
LOX IMVI melanoma
  GI50: 5.09 µM
  TGI: 17 µM
MDA-MB-231 breast
  GI50: 12 µM
  TGI: 24.4 µM
UO-31 renal
  GI50: 6.51 µM
  TGI: > 100 µM
MOLT-4 leukemia
  GI50: 2.53 µM
  TGI: 5.84 µM
SK-MEL-5 melanoma
  GI50: 3.74 µM
  TGI: 15.3 µM
HT29 colon
  GI50: 3.43 µM
  TGI: > 100 µM
PC-3 prostate
  GI50: 11.9 µM
  TGI: 24.2 µM
SK-OV-3 ovarian
  GI50: 23.7 µM
  TGI: 47.7 µM
ACHN renal
  GI50: 4.62 µM
  TGI: 16.7 µM
SN12C renal
  GI50: 13.2 µM
  TGI: 25.9 µM
NCI/ADR-RES ovarian
  GI50: 13.9 µM
  TGI: 26.8 µM
CAKI-1 renal
  GI50: 17.6 µM
  TGI: 31.4 µM
SR leukemia
  GI50: 1.7 µM
  TGI: 4.64 µM
K-562 leukemia
  GI50: 3.63 µM
  TGI: 14.5 µM
HCT-15 colon
  GI50: 5.26 µM
  TGI: 18.1 µM
OVCAR-8 ovarian
  GI50: 20.3 µM
  TGI: 40.8 µM
KM12 colon
  GI50: 15.5 µM
  TGI: 28.8 µM
SF-295 CNS
  GI50: 16.5 µM
  TGI: 34.5 µM
UACC-62 melanoma
  GI50: 15.3 µM
  TGI: 28.6 µM
U251 CNS
  GI50: 11 µM
  TGI: 22.9 µM
HCC-2998 colon
  GI50: 3.97 µM
  TGI: 15.1 µM
HOP-62 NSCLC
  GI50: 17.5 µM
  TGI: 31.3 µM
T-47D breast
  GI50: 17 µM
  TGI: 34.6 µM
UACC-257 melanoma
  GI50: 22.2 µM
  TGI: 57.9 µM
OVCAR-3 ovarian
  GI50: 13.2 µM
  TGI: 25.9 µM
MDA-MB-435
  GI50: 16.8 µM
  TGI: 31.5 µM
TK-10 renal
  GI50: 2.11 µM
  TGI: 8.57 µM
RPMI-8226 leukemia
  GI50: 1.56 µM
  TGI: 4.14 µM
EKVX NSCLC
  GI50: 12.5 µM
  TGI: 30.3 µM
NCI-H226 lung
  GI50: 23 µM
  TGI: 58.8 µM
SNB-19 CNS
  GI50: 17 µM
  TGI: 41 µM
SF-539 CNS
  GI50: 16 µM
  TGI: 32.1 µM
NCI-H23 lung
  GI50: 17.2 µM
  TGI: 62.9 µM
OVCAR-4 ovarian
  GI50: 5.2 µM
  TGI: > 100 µM
NCI-H522 lung
  GI50: 6.99 µM
  TGI: 21.9 µM
SNB-75 CNS
  GI50: 23.3 µM
  TGI: 56.8 µM
HOP-92 NSCLC
  GI50: 12.6 µM
  TGI: 26.8 µM
COLO 205 colon
  GI50: 19.2 µM
  TGI: 38.7 µM
SK-MEL-2 melanoma
  GI50: 34.6 µM
  TGI: > 100 µM
M14 melanoma
  GI50: 14 µM
  TGI: 27 µM
DU-145 prostate
  GI50: 6.52 µM
  TGI: 20.2 µM

## N=C(N)c1ccc(-c2ccc(-c3ccc(Cl)cc3)o2)nc1
CAKI-1 renal
  GI50: 1.42 µM
  TGI: 2.74 µM

## CC(NC(=O)C(NC(=O)OC(C)(C)C)C(C)C)C(=O)N1CCCC1C(=O)O (stereo not drawn) (Boc-Val-Ala-Pro-OH; configuration not given here)
HS 578T breast
  GI50: 38.1 µg/mL (≈ 98.8 µM)
UACC-62 melanoma
  GI50: 36.2 µg/mL
SNB-75 CNS
  GI50: 0.0101 µg/mL
  TGI: 0.09 µg/mL

Reference: PubChem BioAssay (NCI)
